# Experimental data taken from paper PMC6378217, “The lysyl oxidase like 2/3 enzymatic inhibitor, PXS‐5153A, reduces crosslinks and ameliorates fibrosis” (Journal of Cellular and Molecular Medicine, 2018).
# Columns and labels:
# Recombinant dog LOXL2 = target: T1, Recombinant dog LOXL2 (Canis lupus familiaris, UniProt A0A8I3P9Y5); experiment: Amplex-Red fluorometric enzymatic activity assay, recombinant dog LOXL2; assay type: biochemical; conditions: 30 minute pre-incubation; average of at least three experiments
# T1 construct: made in house; host or cells: HEK-293 clones provided by Dr. Fernando Rodríguez Pascual
# T1 sequence (A0A8I3P9Y5 1-777): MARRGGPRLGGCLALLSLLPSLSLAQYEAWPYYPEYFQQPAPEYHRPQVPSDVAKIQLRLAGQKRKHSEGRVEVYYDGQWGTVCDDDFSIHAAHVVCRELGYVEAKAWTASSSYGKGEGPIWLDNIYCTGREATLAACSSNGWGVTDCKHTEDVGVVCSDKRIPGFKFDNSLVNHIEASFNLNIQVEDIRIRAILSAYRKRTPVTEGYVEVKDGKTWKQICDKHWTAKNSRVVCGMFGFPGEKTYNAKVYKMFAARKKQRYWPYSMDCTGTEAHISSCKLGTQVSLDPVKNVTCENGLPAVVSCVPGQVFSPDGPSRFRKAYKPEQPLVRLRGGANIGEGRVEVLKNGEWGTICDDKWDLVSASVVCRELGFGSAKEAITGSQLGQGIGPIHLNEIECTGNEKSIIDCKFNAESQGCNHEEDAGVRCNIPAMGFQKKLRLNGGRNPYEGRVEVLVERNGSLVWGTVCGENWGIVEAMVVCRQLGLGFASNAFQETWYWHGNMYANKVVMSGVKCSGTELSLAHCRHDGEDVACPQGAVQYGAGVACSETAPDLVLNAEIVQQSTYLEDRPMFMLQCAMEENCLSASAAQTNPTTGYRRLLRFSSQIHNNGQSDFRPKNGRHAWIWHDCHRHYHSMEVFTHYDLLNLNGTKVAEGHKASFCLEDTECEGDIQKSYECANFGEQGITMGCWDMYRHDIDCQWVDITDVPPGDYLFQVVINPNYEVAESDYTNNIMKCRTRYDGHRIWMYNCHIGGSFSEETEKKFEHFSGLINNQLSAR
# Experimental: (§1) The measurement of the enzymatic activity of all lysyl oxidase family members was based on the detection of hydrogen peroxide with an Amplex‐Red oxidation assay, as described in Zhou et al26 Recombinant human semicarbazide sensitive amine oxidase (SSAO/VAP1), diamine oxidase (DAO) and monoamine oxidases A and B (MAO‐A and MAO‐B) assays were performed as previously described.27 For detailed enzymatic procedures, see supporting information.
# (§2) The measurement of the enzymatic activity of all lysyl oxidase family members was based on the detection of hydrogen peroxide with an Amplex-Red oxidation assay, as described in Zhou et al.[1]; miniaturised in 384 well format, with the appropriate combination of substrate and assay buffer for each individual enzyme. After a 30 minute pre-incubation of the enzyme at 37 °C with the test compound (or with different incubation times for the time-dependency assay), one volume of reaction mixture containing 120 μM Amplex Red (AR) (Life Technologies), 1.5 U/mL horseradish peroxidase (HRP) (Sigma-Aldrich) and the specific substrate was added to each sample. The relative fluorescence units (RFU) were then measured every 2.5 minutes for 30 minutes at 37°C, excitation 565 nm and emission 590, on a BMG Clariostar Microplate Reader. […]
# MAO-A = MAO-A (Homo sapiens, UniProt P21397); experiment: MAO-A enzymatic activity assay; assay type: biochemical
# Chain of MAO-A (P21397 whole entry): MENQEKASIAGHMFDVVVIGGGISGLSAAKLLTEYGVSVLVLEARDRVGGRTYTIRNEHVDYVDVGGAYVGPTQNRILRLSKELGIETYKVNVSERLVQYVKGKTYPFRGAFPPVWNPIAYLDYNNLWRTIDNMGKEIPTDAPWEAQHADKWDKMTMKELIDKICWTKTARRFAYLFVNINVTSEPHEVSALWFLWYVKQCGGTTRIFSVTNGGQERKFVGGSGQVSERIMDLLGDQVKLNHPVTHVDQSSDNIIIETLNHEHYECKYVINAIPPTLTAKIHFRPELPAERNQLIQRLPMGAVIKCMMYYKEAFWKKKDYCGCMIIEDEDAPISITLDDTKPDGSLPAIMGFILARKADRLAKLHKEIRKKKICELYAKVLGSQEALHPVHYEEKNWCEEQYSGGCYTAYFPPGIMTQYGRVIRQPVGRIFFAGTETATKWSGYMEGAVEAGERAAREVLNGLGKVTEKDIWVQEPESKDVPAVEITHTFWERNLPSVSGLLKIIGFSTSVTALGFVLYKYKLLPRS
# Experimental: as §1
# Recombinant human semicarbazide sensitive amine oxidase (SSAO/VAP1), diamine oxidase (DAO) and monoamine oxidases A and B (MAO-A and MAO-B) assays were performed as previously described.
# [1] = system: NASH-induced liver disease; experiment: NASH-induced liver disease (streptozotocin/high fat diet, STAM); assay type: in vivo, C57/BL6 mice
# Experimental: Pellet then underwent acid hydrolysis in 6 mol/L HCl at 100°C for 24 hours. Hydroxyproline and crosslinks were extracted from the hydrolysate using an automated solid phase extraction system (Gilson […] system). After extraction and drying, hydroxyproline and crosslinks were analysed by UHPLC-ESI-MS/MS on a Thermo Dionex UHPLC and TSQ Endura triple quad mass spectrometer. Total protein was quantified in the samples using a commercially available kit (QuickZyme Biosciences, Leiden, The Netherlands). For detailed procedures, see supporting information. The study was performed by Stelic MC, Inc. (Tokyo, Japan) with approval from local ethics committee. NASH was established in male C57/BL6 mice by a single subcutaneous injection of 200 μg streptozotocin (Sigma-Aldrich) after birth and with a high fat diet (CLEA Japan) ad libitum after 4 weeks of age (day 28 ± 2) until 14 weeks of age. Mice were orally administered with 10 mg/kg PXS-5153A once daily from 8 to 14 weeks of age. ALT levels were assessed in the plasma. One lobe of the liver tissue was fixed in 10% formalin, stained for Sirius red and the percentage coverage area was measured; HE staining was performed to estimate non-alcoholic fatty liver disease (NAFLD) activity score according to the criteria of Kleiner et al28 The remainder of the liver was snap frozen and used for protein, hydroxyproline and crosslink analysis.
# Native human LOX = target: T2, Native human LOX (Homo sapiens, UniProt P28300); experiment: Amplex-Red fluorometric enzymatic activity assay, native human LOX (IMR90 conditioned medium); assay type: biochemical; conditions: 30 minute pre-incubation; average of at least three experiments
# T2 construct: collecting the 30-kDa LOX in the lower molecular weight portion; host or cells: IMR90 conditioned medium
# T2 sequence (P28300 169-417): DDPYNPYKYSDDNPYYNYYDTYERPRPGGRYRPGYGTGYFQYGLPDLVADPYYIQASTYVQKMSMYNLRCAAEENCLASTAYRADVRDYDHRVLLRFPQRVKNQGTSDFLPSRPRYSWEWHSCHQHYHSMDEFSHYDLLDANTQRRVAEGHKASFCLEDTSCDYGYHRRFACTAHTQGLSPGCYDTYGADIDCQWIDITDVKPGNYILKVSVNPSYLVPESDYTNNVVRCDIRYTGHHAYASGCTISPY
# Experimental: as §1, §2
# Native human LOXL2 = target: T3, Native human LOXL2 (Homo sapiens, UniProt Q9Y4K0); experiment: Amplex-Red fluorometric enzymatic activity assay, native human LOXL2 (IMR90 conditioned medium); assay type: biochemical; conditions: 30 minute pre-incubation; average of at least three experiments
# T3 construct: separating LOXL2 in the portion at higher molecular weight; host or cells: IMR90 conditioned medium
# T3 sequence (Q9Y4K0 26-774): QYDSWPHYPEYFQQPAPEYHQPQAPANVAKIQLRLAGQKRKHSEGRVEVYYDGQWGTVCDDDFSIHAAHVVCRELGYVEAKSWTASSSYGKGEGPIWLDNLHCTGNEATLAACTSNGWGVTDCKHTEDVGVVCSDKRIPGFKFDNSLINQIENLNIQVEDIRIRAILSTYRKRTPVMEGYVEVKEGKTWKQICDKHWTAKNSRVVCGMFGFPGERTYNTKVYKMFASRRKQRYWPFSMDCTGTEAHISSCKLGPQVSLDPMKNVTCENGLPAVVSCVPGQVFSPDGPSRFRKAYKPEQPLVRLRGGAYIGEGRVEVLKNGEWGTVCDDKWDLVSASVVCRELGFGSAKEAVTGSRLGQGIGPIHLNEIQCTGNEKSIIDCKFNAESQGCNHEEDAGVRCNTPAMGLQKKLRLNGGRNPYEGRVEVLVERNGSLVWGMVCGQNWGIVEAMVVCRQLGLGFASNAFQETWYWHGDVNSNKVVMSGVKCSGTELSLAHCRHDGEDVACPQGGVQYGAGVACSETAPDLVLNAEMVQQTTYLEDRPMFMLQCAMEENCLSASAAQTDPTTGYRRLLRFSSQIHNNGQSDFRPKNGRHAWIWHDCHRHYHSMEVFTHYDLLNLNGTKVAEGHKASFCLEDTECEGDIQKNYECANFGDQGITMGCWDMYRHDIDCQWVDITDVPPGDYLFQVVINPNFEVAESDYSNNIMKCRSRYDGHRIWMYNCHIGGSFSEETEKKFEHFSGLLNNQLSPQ
# Experimental: as §1, §2
# Adrenergic α1A = Adrenergic α1A (Rattus norvegicus, UniProt P43140); experiment: Eurofins Hit Profiling Screen; assay type: binding; conditions: 10 μmol/L
# Chain of Adrenergic α1A (P43140 whole entry): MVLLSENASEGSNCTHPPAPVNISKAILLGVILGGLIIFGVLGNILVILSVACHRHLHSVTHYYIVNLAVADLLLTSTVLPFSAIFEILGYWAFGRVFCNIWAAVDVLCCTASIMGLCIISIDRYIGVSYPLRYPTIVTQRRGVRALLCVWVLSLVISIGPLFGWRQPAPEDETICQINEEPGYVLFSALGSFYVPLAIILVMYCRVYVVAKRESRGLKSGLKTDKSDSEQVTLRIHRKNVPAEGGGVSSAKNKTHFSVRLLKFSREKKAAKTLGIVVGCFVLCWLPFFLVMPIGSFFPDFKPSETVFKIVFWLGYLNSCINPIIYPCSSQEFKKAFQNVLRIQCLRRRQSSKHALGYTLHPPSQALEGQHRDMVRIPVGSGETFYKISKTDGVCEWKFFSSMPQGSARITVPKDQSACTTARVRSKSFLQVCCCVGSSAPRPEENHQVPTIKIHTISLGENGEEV
# Muscarinic M3 = Muscarinic M3 (Homo sapiens, UniProt P20309); experiment: Eurofins Hit Profiling Screen; assay type: binding; conditions: 10 μmol/L
# Chain of Muscarinic M3 (P20309 whole entry): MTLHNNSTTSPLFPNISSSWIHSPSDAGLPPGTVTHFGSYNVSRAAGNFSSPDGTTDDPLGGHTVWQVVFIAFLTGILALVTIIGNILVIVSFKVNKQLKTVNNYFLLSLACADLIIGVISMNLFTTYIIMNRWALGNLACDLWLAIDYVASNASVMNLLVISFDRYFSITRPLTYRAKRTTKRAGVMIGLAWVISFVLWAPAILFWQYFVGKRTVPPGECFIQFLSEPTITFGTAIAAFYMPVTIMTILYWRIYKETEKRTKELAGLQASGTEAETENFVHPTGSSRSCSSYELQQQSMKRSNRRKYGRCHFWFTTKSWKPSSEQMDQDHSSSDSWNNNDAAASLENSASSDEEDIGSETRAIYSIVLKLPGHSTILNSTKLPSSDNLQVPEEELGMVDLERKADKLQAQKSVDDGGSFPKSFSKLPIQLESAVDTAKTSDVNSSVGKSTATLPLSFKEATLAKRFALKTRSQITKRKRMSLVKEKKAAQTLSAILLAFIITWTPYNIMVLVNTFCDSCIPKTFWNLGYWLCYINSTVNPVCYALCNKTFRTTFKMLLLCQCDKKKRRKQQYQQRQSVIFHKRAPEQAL
smiles,measurement,setting,value
Cc1c(-c2cccc(S(=O)(=O)N(C)C)c2)c2ncccc2n1C/C(F)=C/CN.Cl.Cl [PXS-5153A],IC50,Recombinant dog LOXL2,9 nM
same,pIC50 ± SD,Recombinant dog LOXL2,8.04 ± 0.05
same,IC50,MAO-A,> 30000 nM
same,DHLNL,[1]; 10 mg/kg orally once daily,significantly reduced
same,NASH disease score (NAFLD activity score),[1]; 10 mg/kg orally once daily,reduction
same,PYD,[1]; 10 mg/kg orally once daily,significantly reduced
same,hepatocyte ballooning,[1]; 10 mg/kg orally once daily,significantly reduced
same,percentage coverage area by Picrosirius red staining,[1]; 10 mg/kg orally once daily,reduced
same,HYP,[1]; 10 mg/kg orally once daily from 8 to 14 weeks of age,significantly reduction
same,IC50,Native human LOX,1790 nM
same,pIC50 ± SD,Native human LOX,5.7 ± 0.16
same,IC50,Native human LOXL2,38 nM
same,pIC50 ± SD,Native human LOXL2,7.4 ± 0.12
same,% inhibition,Adrenergic α1A,20%
same,% inhibition,Muscarinic M3,9%
